Measurements taken from patent US20050281749A1, “Sprayable compositions comprising a combination of pharmaceutical actives and an oily phase” (GALDERMA S.A., priority 2004, published 2005).

What was measured:
[1] = Stability of calcitriol in Cetiol SN (cetearyl isononanoate), HPLC assay; format: physicochemical; conditions: calcitriol 30 ppm in Cetiol SN with 0.4% BHT
Excerpt: (§1) b) Stability of calcitriol in Cetiol SN (cetearyl isononanoate): Solution of calcitriol 30 ppm in qs 100% of Cetiol SN (cetearyl isononanoate) in the presence of 0.4% of BHT. HPLC assay technique against reference substance. At the starting time (TO) the composition is considered to contain 100% of calcitriol. Concentration of calcitriol measured in % relative to TO: […]

[2] = Stability of calcitriol in Miglyol 812 (caprylic/capric triglycerides), HPLC assay; format: physicochemical; conditions: calcitriol 30 ppm in Miglyol 812 with 0.4% BHT
Excerpt: as §1, with “a)” for “b)”, “Miglyol 812 (caprylic/capric triglycerides):” for “Cetiol SN (cetearyl isononanoate):”, “Miglyol 812” for “Cetiol SN (cetearyl isononanoate)”

For `C=C1/C(=C\C=C2/CCC[C@]3(C)[C@@H]([C@H](C)CCCC(C)(C)O)CC[C@@H]23)C[C@@H](O)C[C@@H]1O` [calcitriol], the “Concentration of calcitriol measured in % relative to TO” value ([1]; +4° C., T 2 weeks) was 98.6%, the “Concentration of calcitriol measured in % relative to TO” value ([1]; +4° C., T 4 weeks) was 98.1% and the “Concentration of calcitriol measured in % relative to TO” value ([1]; +40° C., T 2 weeks) was 99.0%. For the same compound, the “Concentration of calcitriol measured in % relative to TO” value ([1]; +40° C., T 4 weeks) was 98.9%, the “Concentration of calcitriol measured in % relative to TO” value ([1]; AT, T 2 weeks) was 98.7% and the “Concentration of calcitriol measured in % relative to TO” value ([1]; AT, T 4 weeks) was 98.4%. The “Concentration of calcitriol measured in % relative to TO” value ([2]; +4° C., T 2 weeks) was 98.3%, the “Concentration of calcitriol measured in % relative to TO” value ([2]; +4° C., T 4 weeks) was 105.2% and the “Concentration of calcitriol measured in % relative to TO” value ([2]; +40° C., T 2 weeks) was 91%. For the same compound, the “Concentration of calcitriol measured in % relative to TO” value ([2]; +40° C., T 4 weeks) was 93.8%, the “Concentration of calcitriol measured in % relative to TO” value ([2]; AT, T 2 weeks) was 95.1% and the “Concentration of calcitriol measured in % relative to TO” value ([2]; AT, T 4 weeks) was 98.0%.
